Literature values in patent publication US20060193824A1, “Methods for the treatment of infectious and inflammatory airway diseases” (priority 2005, published 2006).

Tests used:
human airways [1] = test system: human airways
[2] = test system: respiratory epithelial cells
human airways [3] = test system: human airways; remark: listed apart in the source
[4] = test system: normal pancreatic cell lines; settings: extracellular ATP

Molecule: NCCc1c[nH]cn1 [Histamine]
- mucous glycoprotein release (human airways [1]): stimulates mucous glycoprotein release

Molecule: CC(C)C[C@H](NP(=O)(O)O[C@@H]1O[C@@H](C)[C@H](O)[C@@H](O)[C@H]1O)C(=O)N[C@@H](Cc1c[nH]c2ccccc12)C(=O)O [phosphoramidon]
- mucin release (mucin release): stimulate mucin release

Molecule: Tumor necrosis factor alpha
- MUC5AC release [2]: stimulate MUC5AC release

Molecule: CC(C[N+](C)(C)C)OC(N)=O (centres unmarked) [bethanechol]
- mucin secretion (mucin secretion): effective to stimulate mucin secretion

Molecule: FC(F)(F)C(F)(F)C(F)(F)C(F)(F)C(F)(F)C(F)(F)C(F)(F)C(F)(F)Br [perflubron, perfluorooctyl bromide]
- mucin secretion (ferret trachea): stimulates mucin secretion

Molecule: Interleukin 1
- mucus secretagogue activity (mucus secretion): mucus secretagogue

Molecule: CCCCC/C=C\C/C=C\C/C=C\C/C=C\CCCC(=O)O [Arachidonic acid]
- mucin release (human airways [3]): release mucin from human airways

Molecule: C[N+](C)(C)CCOC(N)=O [carbachol]
- mucin secretion (mucin secretion): effective to stimulate mucin secretion

Molecule: O=C(O)CNC(=O)C(CS)Cc1ccccc1 (centres unmarked) [Thiorphan]
- mucin release (mucin release): stimulate mucin release

Molecule: Nc1ncnc2c1ncn2[C@@H]1O[C@H](COP(=O)(O)OP(=O)(O)OP(=O)(O)O)[C@@H](O)[C@H]1O [ATP]
- mucin protein secretion [4]: rapidly increased mucin protein secretion

Molecule: CC(=O)OC(C)C[N+](C)(C)C (centres unmarked) [methacholine]
- mucin secretion (mucin secretion): effective to stimulate mucin secretion

Molecule: CC(C)C[C@H](NC(=O)C(CS)Cc1ccccc1)C(=O)O (some centres unmarked) [leucine-thiorphan]
- mucin release (mucin release): stimulate mucin release

Molecule: Epidermal growth factor: Epidermal growth factor, EGF, which can be obtained from Sigma (NSDSECPLSHDGYCLHDGVCMYIEALDKYACNCVVGYIGERCQYRDLKWWELR; Epidermal growth factor; UniProt P01133 971-1023, looked up)
- mucin production (mucin production): effective to stimulate mucin production

Molecule: CC(=O)N[C@H]1C(O)O[C@H](CO)[C@@H](O)[C@@H]1O (some centres unmarked) [N-acetyl-glucosamine]
- mucin release (GI tract): stimulate mucin release in the GI tract
